According to the NIST ThermoML archive (doi:10.1021/acs.jced.7b00263):
± gives the expanded uncertainty stated by the source.

Settings: Liquid, Closed cell (Static) method

Compound: F/C=C\C(F)(F)F [(Z)-1,3,3,3-tetrafluoro-1-propene]
- vapor or sublimation pressure (353.17 K): 858.3 ± 1.4 kPa
- vapor or sublimation pressure (373.14 K): 1347.5 ± 2.1 kPa
- vapor or sublimation pressure (393.12 K): 2023.7 ± 3.2 kPa
- vapor or sublimation pressure (413.14 K): 2940.4 ± 4.6 kPa
